Structures can show the parent of a compound that is named as a salt.
Target: PAI-1 (Homo sapiens, UniProt P05121)
Test: biochemical
Type: biochemical
Conditions: for IC50: PAI chromogenic substrate assay
Method in brief: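 Compound preincubated with PAI-1 before addition to a tPA system; residual tPA converts plasminogen to plasmin, which cleaves chromogenic substrate S2251. Released p-nitroaniline read at 405 nm; values given as % inhibition at set concentrations or IC50.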

Chain of PAI-1 (P05121 24-402): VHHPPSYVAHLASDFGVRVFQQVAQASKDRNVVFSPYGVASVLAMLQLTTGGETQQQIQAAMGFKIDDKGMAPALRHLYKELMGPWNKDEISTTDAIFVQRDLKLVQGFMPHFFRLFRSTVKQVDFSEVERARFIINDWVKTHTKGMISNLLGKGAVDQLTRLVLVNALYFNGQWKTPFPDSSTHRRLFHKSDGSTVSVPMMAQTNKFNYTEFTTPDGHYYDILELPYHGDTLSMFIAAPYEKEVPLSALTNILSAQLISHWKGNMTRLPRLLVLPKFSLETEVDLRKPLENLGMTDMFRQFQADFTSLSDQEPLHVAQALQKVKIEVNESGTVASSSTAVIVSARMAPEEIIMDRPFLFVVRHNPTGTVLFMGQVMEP

SMILES | % Inhibition (5 μm) [%] | % Inhibition (20 μm) [%] | IC50 [µM] | % Inhibition (100 μm) [%]
CN(C)CCSc1ccc(/C=c2\[nH]c(=O)/c(=C/c3ccc(OCc4ccccc4)cc3)[nH]c2=O)cc1 [Compound 5481.HCl, (3Z,6Z)-3-(4-Benzyloxybenzylidene)-6-(4-(2-dimethylaminoethylthio)benzylidene)-2,5-piperazinedione] | 10 | 55 |  | 
COc1cc(/C=c2\[nH]c(=O)/c(=C/c3ccc(SCCN(C)C)cc3)[nH]c2=O)ccc1OCc1ccc([N+](=O)[O-])cc1 [Compound 5490, (3Z,6Z)-6-(4-(2-Dimethylaminoethylthio)benzylidene)-3-(3-methoxy-4-(4-nitrobenzyloxy)benzylidene)-2,5-piperazinedione] | 6 | 48 | 20 | 
COC(=O)c1ccc(/C=c2\[nH]c(=O)/c(=C/c3ccc(SCCN(C)C)s3)[nH]c2=O)cc1 [Compound 5477.HCl, (3Z,6Z)-3-(5-(2-Dimethylaminoethylthio)-2-thienyl)methylene-6-(4-methoxycarbonylbenzylidene)-2,5-piperazinedione] | 19 | 69 | 15.4 | 
CN(C)CCSc1ccc(/C=c2\[nH]c(=O)/c(=C/c3ccccc3Br)[nH]c2=O)s1 [Compound 5313, (3Z,6Z)-6-(2-Bromobenzylidene)-3-(5-(2-dimethylaminoethylthio)-2-thienyl)methylene-2,5-piperazinedione] |  | 10 |  | 
CN(C)CCSc1ccc(/C=c2\[nH]c(=O)/c(=C/c3cccc(Cl)c3)[nH]c2=O)s1 [Compound 5291, (3Z,6Z)-6-(3-Chlorobenzylidene)-3-(5-(2-dimethylaminoethylthio)-2-thienyl)methylene-2,5-piperazinedione] |  |  | 20 | 
COC(=O)c1ccc(/C=c2\[nH]c(=O)/c(=C/c3ccc(SCCN(C)C)s3)[nH]c2=O)cc1 [Compound 5477, (3Z,6Z)-3-(5-(2-Dimethylaminoethylthio)-2-thienyl)methylene-6-(4-methoxycarbonylbenzylidene)-2,5-piperazinedione] | 10 | 59 | 20 | 
CN(C)CCSc1ccc(/C=c2\[nH]c(=O)/c(=C/c3cccc(C(F)(F)F)c3)[nH]c2=O)s1 [Compound 5315.HCl, (3Z,6Z)-3-(5-(2-Dimethylaminoethylthio)-2-thienyl)methylene-6-(3-trifluoromethylbenzylidene)-2,5-piperazinedione] |  | 10 |  | 
CN(C)CCSc1ccc(/C=c2\[nH]c(=O)/c(=C/c3ccc(C(C)(C)C)cc3)[nH]c2=O)cc1 [Compound 5440, (3Z,6Z)-3-(4-(2-Dimethylaminoethylthio)benzylidene)-6-(4-tert-butylbenzylidene)-2,5-piperazinedione] | 11 | 30 |  | 
CN(C)CCSc1ccc(/C=c2\[nH]c(=O)/c(=C/c3ccc4c(c3)Cc3ccccc3-4)[nH]c2=O)s1 [Compound 5301, (3Z,6Z)-3-(5-(2-Dimethylaminoethylthio)-2-thienyl)methylene-6-(2-fluorenylmethylene)-2,5-piperazinedione] |  | 65 | 20 | 107
CN(C)CCSc1ccc(/C=c2\[nH]c(=O)/c(=C/c3ccc4c(c3)OCO4)[nH]c2=O)s1 [Compound 5279.HCl, (3Z,6Z)-3-(5-(2-Dimethylaminoethylthio)-2-thienyl)methylene-6-(3,4-methylenedioxybenzylidene)-2,5-piperazinedione] |  |  | 13 | 
CN(C)CCSc1ccc(/C=c2\[nH]c(=O)/c(=C/c3cccnc3)[nH]c2=O)s1 [Compound 5470.HCl, (3Z,6Z)-6-(5-(2-Dimethylaminoethylthio)-2-thienyl)methylene-3-(3-pyridylmethylene)-2,5-piperazinedione] | 1 | 1 |  | 
CN(C)CCSc1ccc(/C=c2\[nH]c(=O)/c(=C/c3ccc4c(c3)OCO4)[nH]c2=O)cc1 [Compound 5491.HCl, (3Z,6Z)-6-(4-(2-Dimethylaminoethylthio)benzylidene)-3-(3,4-methylenedioxybenzylidene)-2,5-piperazinedione] | 0 | 47 | 20 | 

Now from value to molecule:

% Inhibition (5 μm) [%] | % Inhibition (20 μm) [%] | IC50 [µM] | % Inhibition (100 μm) [%] | SMILES
30 | 59 | 6.5 |  | CN(C)CCSc1ccc(/C=c2\[nH]c(=O)/c(=C/CC3CCCC(C)(C)C3)[nH]c2=O)s1 (stereo not shown) [Compound 5455, (3Z,6Z)-3-(5-(2-Dimethylaminoethylthio)-2-thienyl)methylene-6-(2-(3,3-dimethylcyclohexyl)ethylidene)-2,5-piperazinedione]
66 | 70 | 4.3 |  | COc1ccc(/C=c2\[nH]c(=O)/c(=C/c3ccc(SCCN(C)C)cc3)[nH]c2=O)cc1 [Compound 5479, (3Z,6Z)-3-(4-(2-Dimethylaminoethylthio)benzylidene)-6-(4-methoxybenzylidene)-2,5-piperazinedione]
25 | 69 | 5.3 |  | CN(C)CCSc1ccc(/C=c2\[nH]c(=O)/c(=C/C3CCCCC3)[nH]c2=O)s1 [Compound 5454.HCl, (3Z,6Z)-6-Cyclohexylmethylene-3-(5-(2-dimethylaminoethylthio)-2-thienyl)methylene-2,5-piperazinedione]
 | 65 | 5 | 56 | CN(C)CCSc1ccc(/C=c2\[nH]c(=O)/c(=C/c3ccccc3)[nH]c2=O)s1 [Compound 5131.HCl, (3Z,6Z)-6-Benzylidene-3-(5-(2-dimethylaminoethylthio)-2-thienyl)methylene-2,5-piperazinedione]
17 | 61 | 11.2 |  | COc1ccc(/C=c2\[nH]c(=O)/c(=C/c3ccc(SCCN(C)C)s3)[nH]c2=O)cc1 [Compound 5464.HCl, (3Z,6Z)-3-(5-(2-Dimethylaminoethylthio)-2-thienyl)methylene-6-(4-methoxybenzylidene)-2,5-piperazinedione]
15 | 60 | 7.6 |  | COc1cc(/C=c2\[nH]c(=O)/c(=C/c3ccc(SCCN(C)C)s3)[nH]c2=O)ccc1OCc1ccc([N+](=O)[O-])cc1 [Compound 5488.HCl, (3Z,6Z)-3-(5-(2-Dimethylaminoethylthio)-2-thienyl)methylene-6-(3-methoxy-4-(4-nitrobenzyloxy)benzylidene)-2,5-piperazinedione]
